Measured values from US10933053B2, “Treating infections with ceftolozane/tazobactam in subjects having impaired renal function” (MERCK SHARP & DOHME CORP., priority 2013, dated 2021).
Values joined by “and” are separate entries in the source; they are usually repeats but may differ in a detail not shown here. Equal values may be shown once.

Columns and labels:
[1] = Binding to human plasma proteins; assay type: in vitro ADME; conditions: human, plasma; value used in Monte Carlo simulation; read-out: unbound fraction (Fu)
[2] = set-up: species or system human
Description: Phoenix™ Non Linear Mixed Effects (NLME) version 1.2 (Pharsight Corporation, Certara USA, Inc., 9666 Olive Blvd., Suite 425, St. Louis, Mo. 63132 USA) with the extended least squares first order conditional estimation (FOCE-ELS) was used for population PK modeling and SAS® 9.3 (SAS Institute Inc., 100 SAS Campus Drive, Cary, N.C. 27513-2414, USA) with finite element method (FEM) was used for Monte Carlo simulation. R (2.15.0) and SAS® 9.3 were used for data management, statistical summaries and table/figures generation.
No other structural model was further tested unless necessary. Ceftolozane or tazobactam plasma concentration-time data with hemodialysis were then included and hemodialysis was tested as a covariate effect on both clearance and volume of distribution for the central compartment. The final model was selected based on the stability of the model, reliability and interpretability of the parameter estimates and the goodness-of-fit plots.
The population PK model for ceftolozane was developed via a 2-step process. First, the ceftolozane plasma concentrations without hemodialysis (first dose) were modeled and best described with a 2-compartment disposition model (FIG. 15) plus a proportional residual error model. The between-subject variability was reliably estimable on all four PK parameters CL, Vc, CL2 and V2. When the ceftolozane plasma concentrations following the second dose with hemodialysis were included, the above model, with the addition of a dichotomous covariate and a between-subject variability for the effect of hemodialysis, was the best to fit the combined data.
Similar to ceftolozane, tazobactam plasma concentrations without hemodialysis (first dose) were first modeled and well described with a 2-compartment disposition model (FIG. 15) plus a proportional residual error model. The between-subject variability was reliably estimable on all four PK parameters CL, Vc, CL2 and V2. When the tazobactam plasma concentrations following the second dose were included, the model with hemodialysis evaluated as a dichotomous covariate with a between-subject variability was the best to fit all the combined data. […] (17)
Ceftolozane/tazobactam plasma concentrations collected from 6 patients with ESRD following a single dose without hemodialysis and a second dose with hemodialysis were used to develop a population PK model (Phoenix™ Non Linear Mixed Effects [NLME]).
A 2-compartment disposition model was used to fit the ceftolozane or tazobactam plasma concentration-time data without hemodialysis and to test the between-subject variability and residual variability. Ceftolozane or tazobactam plasma concentration-time data with hemodialysis were then included and hemodialysis was tested as a covariate effect on both clearance and volume of distribution for the central compartment.

[3] = Population PK model of ceftolozane and tazobactam (healthy volunteers, renal impairment, cUTI/cIAI patients); conditions: for CLd, population estimate: intercompartmental clearance; for Vc (L)^d, population estimate: peripheral volume of distribution per footnote
Procedure: A population-PK analysis was performed on plasma ceftolozane and tazobactam concentration-time data from adult subjects enrolled in 10 studies. Subjects were included from multiple sites and all studies were performed in accordance with the International Conference on Harmonization guidelines on good clinical practice and the Declaration of Helsinki. An investigational review board approved the study protocols at each site.
Serum concentration data were analyzed from 5 studies in healthy volunteers (n=184), 3 studies in subjects with varying degrees of renal impairment (n=42), and 2 phase 2 studies in patients with bacterial infections (cUTIs [n=73] and cIAIs [n=77]). In all studies, ceftolozane was administered as a 1-hour intravenous infusion either alone or in combination with tazobactam at a fixed 2:1 ratio (ceftolozane:tazobactam). […] In the phase 2 trials, cUTI patients received ceftolozane alone 1000 mg (q8h) and cIAI patients received ceftolozane/tazobactam 1000/500 mg (q8h).
All subjects who received at least 1 dose of study medication and had at least 1 measurement of ceftolozane or tazobactam were included (N=376). Plasma concentrations of ceftolozane and tazobactam were determined by a validated liquid-chromatography-tandem mass spectrometry assay (MicroConstants, Inc., San Diego, Calif.) described previously. Concentrations below the limit of quantitation (BLQ), as defined previously, were considered as missing. No substitutions were made to account for these missing data points.
Base model development. The model was developed in 2 stages: a preliminary PK model was developed based on datasets from 3 studies. In the current analysis, the structural model was refined using the PK data from 10 studies (including patients with cUTI or cIAI) and the covariate analysis repeated. The results based on this revised model are presented here. A nonlinear mixed-effects model was developed with Phoenix® NLME™ software, version 1.2, 2012 (Certara L. P. Pharsight, St. Louis, Mo.) using first-order maximum likelihood estimation, and a 2-compartment structure model was fitted to the plasma concentration time data. The First Order Conditional Estimation-Extended Least Squares (FOCE-ELS) engine was used for model fitting. The software R (R Foundation for Statistical Computing, Vienna, Austria, 2013) was used to generate tables of post hoc PK parameters and descriptive statistics.
Sources of variability, that may affect drug exposure, were identified using correlation plots of individual random effects (ETA with mean 0 and estimated variance ? ^2) of parameters such as systemic clearance (CL) and central volume of distribution (Vc) versus covariates. Extrinsic covariates analyzed included dose levels, drug-drug interactions between ceftolozane and tazobactam, and disease status (bacterial infections). Intrinsic covariates analyzed included body weight, age, sex, ethnicity, and baseline calculated CrCL). […] Renal impairment was categorized as normal (CrCL≥90 mL/min), mild (CrCL≥50-<90 mL/min), moderate (CrCL≥30-<50 mL/min), and severe (CrCL≥15-<30 mL/min).
Scatter plots were used to examine the effect of continuous variables and box plots were used for categorical variables. […] Covariates were introduced in a multiplicative order using a power model standardized by the median for continuous covariates and a linear model with an exponentiated factor relative to the reference for categorical covariates.
Final population PK model: evaluation and performance. The final population-PK models for ceftolozane and tazobactam were evaluated using standard diagnostics, goodness-of-fit criteria, nonparametric bootstrap resampling, and visual predictive check (VPC).

Row | Compound | fraction unbound [1] | BSV % (RSE %) of CL ([2]; ESRD) | BSV % (RSE %) of V2 ([2]; ESRD) | BSV % (RSE %) of log-scale coefficient of hemodialysis on CL ([2]; ESRD) | Log-scale coefficient of hemodialysis on CL, mean estimate ([2]; ESRD) | Log-scale coefficient of hemodialysis on Vc, mean estimate ([2]; ESRD) | increase of CL by HD ([2]; ESRD) | increase of Vc by HD ([2]; ESRD) | V2, volume of distribution for peripheral compartment, mean estimate ([2]; human) | apparent terminal half-life ([2]; human) | apparent volume of distribution for the central compartment with hemodialysis ([2]; human) | clearance with hemodialysis ([2]; human) | half-life ([2]; human) | Exponent of the relationship between CLcr and CL ([3]; Table 31 model) | Interindividual variability of CL, estimate ([3]; Table 31 model) | Interindividual variability of Vc, estimate ([3]; Table 31 model) | Proportional shift in Vc for infected patients ([3]; Table 31 model) | Vc, population estimate ([3]; Table 31 model) | CLd, population estimate ([3]; Table 31 model) | Vc (L)^d, population estimate ([3]; Table 31 model) | also measured
1 | Cn1c(N)c(NC(=O)NCCN)c[n+]1CC1=C(C(=O)O)N2C(=O)[C@@H](NC(=O)/C(=N\OC(C)(C)C(=O)O)c3nsc(N)n3)[C@H]2SC1 [Ceftolozane, (6R,7R)-3-[(5-amino-4-{[(2-aminoethyl)carbamoyl]amino}-1-methyl-1H-pyrazol-2-ium-2-yl)methyl]-7-({(2Z)-2-(5-amino-1,2,4-thiadiazol-3-yl)-2-[(1-carboxy-1-methylethoxy)imino]acetyl}amino)-8-oxo-5-thia-1-azabicyclo[4.2.0]oct-2-ene-2-carboxylate] | 0.79 | 52.2 (29.2) % | 48.4 (29.9) % | 69.6 (29.8) % | 4.09 and 4.1 | 1.54 and 1.5 | 60 fold | 4.7 fold | 11.8 | about 40 hours | about 28 L | about 20 L/hr | about 2 hours | 0.75 | 34.3% | 34.0% | 1.37 | 11.8 L | 0.884 L/h | 2.88 L | BSV % (RSE %) of CL2 ([2]; ESRD): 35.9 (41.9) %; BSV % (RSE %) of log-scale coefficient of hemodialysis on Vc ([2]; ESRD): 40.0 (34.7) %; Vc, volume of distribution for central compartment, mean estimate ([2]; human): 6 FIXED L; Exponent of the relationship between weight and CL ([3]; Table 31 model): 0.76; Proportional shift in CL for infected patients ([3]; Table 31 model): 1.26; Vc, population PK ([3]; cIAI): 18.2 L; Vc, population PK ([3]; cUTI, at 74 kg body weight): 13.8 L; between-subject variability (BSV) of CL ([3]; final model): 33.0%; CL, population estimate ([3]; human): 5.14 L/h; inter-compartment clearance (CL2), population PK ([3]; human): about 1 L/h; volume of distribution in the peripheral compartment (Vp), population PK ([3]; human): about 3 L; CL higher than in healthy subjects ([3]; patients with cUTI and cIAI): about 20%
2 | C[C@]1(Cn2ccnn2)[C@H](C(=O)O)N2C(=O)C[C@H]2S1(=O)=O [Tazobactam, tazobactam] | 0.7 | 142 (29.3) % | 24.3 (39.8) % | 29 (31.4) % | 1.89 and 1.9 | 0.434 and 0.43 | 6.6 fold | 1.5 fold | 6.55 | about 4 hours | about 16 L | about 20 L/hr | about 1 hours | 0.67 | 50.2% | 52.5% | 1.47 | 14.2 L | 3.13 L/h | 4.29 L | BSV % (RSE %) of Vc ([2]; ESRD): 398 (34.3) %; power function of baseline CrCL on CL ([3]; [CrCL/115] exponent): 0.67; CL, population estimate ([3]; final model): 18.0 L/h; between-subject variability (BSV) of CL ([3]; final model): 50.2%; between-subject variability (BSV) of Vc ([3]; final model): 52.5%; inter-compartment clearance (CL2), population PK ([3]; final model): 3.13 L/h; volume of distribution in the peripheral compartment (Vp), population PK ([3]; final model): 4.29 L; CL, population estimate ([3]; previously-developed population PK model (Table 31)): 18.0 L/h; Vc, population estimate ([3]; subjects without infection): 14.2 L
